Measured values as given in PMC4848466, “Insights into the activation mechanism of class I HDAC complexes by inositol phosphates” (Nature Communications, 2016).
“Also recorded” adds a separate entry of the source.

Experiments:
HDAC3:SMRT complex = target: T1, HDAC3:SMRT complex (Homo sapiens, UniProt O15379+Q9Y618); assay: Activation of HDAC3:SMRT deacetylase activity by inositol phosphates (BOC-Lys-AMC assay); assay type: biochemical; conditions: for HDAC3 activation relative to maximal Ins(1,4,5,6)P4-stimulated activity / Kd: BOC-Lys-AMC assay; for HDAC3 activation relative to maximal Ins(1,4,5,6)P4-stimulated activity: titration / maximal activation; for Kd: one-site binding fit of HDAC activity vs inositol phosphate concentration, read-out: Kdapp (apparent Kd from activation titration); for HDAC activity as percentage of maximal Ins(1,4,5,6)P4 activity: compound tested at 200 μM
T1 construct: Full-length HDAC3, and residues 350–480 of SMRT were cloned into pcDNA3 vectors; residues 350–480 of SMRT were cloned into pcDNA3 vectors; FLAG tag with TEV protease cleavage site (cleaved yes); made in house; host or cells: HEK293F cells (co-transfection, pcDNA3)
T1 sequence (O15379 whole entry, the tested form may be a part): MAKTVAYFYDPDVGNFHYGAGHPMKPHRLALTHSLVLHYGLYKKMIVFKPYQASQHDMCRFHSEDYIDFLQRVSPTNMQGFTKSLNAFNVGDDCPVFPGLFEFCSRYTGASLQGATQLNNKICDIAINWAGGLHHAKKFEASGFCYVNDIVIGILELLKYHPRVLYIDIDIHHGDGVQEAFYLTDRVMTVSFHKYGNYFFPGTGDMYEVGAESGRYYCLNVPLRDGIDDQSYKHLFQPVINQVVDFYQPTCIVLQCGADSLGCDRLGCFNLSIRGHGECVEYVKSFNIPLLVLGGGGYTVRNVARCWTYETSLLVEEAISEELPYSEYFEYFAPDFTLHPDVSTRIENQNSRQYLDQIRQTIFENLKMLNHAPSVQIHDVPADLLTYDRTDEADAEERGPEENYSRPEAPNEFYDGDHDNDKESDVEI
T1 sequence (Q9Y618 350-480): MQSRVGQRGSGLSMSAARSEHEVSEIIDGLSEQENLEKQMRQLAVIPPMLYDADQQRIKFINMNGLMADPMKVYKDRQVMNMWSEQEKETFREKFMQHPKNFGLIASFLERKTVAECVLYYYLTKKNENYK
Experimental: To understand the stereochemical basis underlying the activation of HDAC3 by inositol phosphates we investigated the ability of a range of inositol phosphates and derivatives to enhance the activity of HDAC3 in deacetylase assays. To achieve this we used an assay based on the complex of HDAC3 with an extended SMRT construct which is stable in the absence of inositol phosphate.
HDAC activity of the protein complex was measured using an HDAC assay with a BOC-Lys-AMC substrate. 50 nM HDAC3:SMRT or 50 nM HDAC1:MTA1 was incubated with 100 μM BOC-Lys-AMC substrate in a final volume of 50 μl buffer A (50 mM Tris pH 7.5, 50 mM NaCl, 5% Glycerol), in a black 96-well plate for 30 min at 37 °C.
To test the ability of inositol phosphates and derivatives to activate the complex, 50 nM HDAC3:SMRT (which had been stripped of its endogenous co-purified inositol phosphate) or 50 nM HDAC1:MTA1 was incubated with inositol phosphate or analogue for 30 min at 37 °C before the HDAC activity was measured. All measurements were performed in triplicate and data analysed using GraphPad Prism (version 6.0, GraphPad Software, Inc).

HDAC3:SMRT [1] = target: T2, HDAC3:SMRT (Homo sapiens, UniProt O15379+Q9Y618); assay: Fluorescence anisotropy displacement of 2-FAM-Ins(1,3,4,5,6)P5; assay type: binding; parameters: Full-length HDAC3, and residues 350–480 of SMRT were cloned into pcDNA3 vectors; residues 350–480 of SMRT were cloned into pcDNA3 vectors; FLAG tag with TEV protease cleavage site (cleaved yes); made in house; host or cells: HEK293F cells (co-transfection, pcDNA3); conditions: fluorescence anisotropy competition
T2 sequence (O15379 whole entry, the tested form may be a part): as the sequence (O15379 whole entry, the tested form may be a part) above
T2 sequence (Q9Y618 350-480): as the sequence (Q9Y618 350-480) above
Experimental: The concentration of protein was determined as that which gave 100% bound in the protein titration experiments. The data were analysed and IC50 values calculated using GraphPad Prism (version 6.0).

HDAC1:MTA1 complex = HDAC1:MTA1 complex (UniProt Q13547)
HDAC1:MTA1 complex, sequence (Q13547 whole entry, one chain of several): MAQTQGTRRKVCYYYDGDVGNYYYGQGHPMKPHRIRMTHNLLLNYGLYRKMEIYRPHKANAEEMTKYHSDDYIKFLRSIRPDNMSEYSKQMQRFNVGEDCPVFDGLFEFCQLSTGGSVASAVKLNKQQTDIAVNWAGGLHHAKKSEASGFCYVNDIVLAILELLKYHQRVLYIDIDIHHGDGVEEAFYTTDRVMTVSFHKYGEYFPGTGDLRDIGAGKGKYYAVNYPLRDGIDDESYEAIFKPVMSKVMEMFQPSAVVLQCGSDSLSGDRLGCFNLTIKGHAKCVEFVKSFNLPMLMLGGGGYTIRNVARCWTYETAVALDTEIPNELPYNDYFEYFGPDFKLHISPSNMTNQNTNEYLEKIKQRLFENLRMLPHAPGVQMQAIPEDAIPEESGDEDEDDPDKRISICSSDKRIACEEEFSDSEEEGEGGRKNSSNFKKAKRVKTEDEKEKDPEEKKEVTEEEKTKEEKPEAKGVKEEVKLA
HDAC3:SMRT [2] = target: T2, HDAC3:SMRT; assay: Fluorescence anisotropy direct binding of 2-FAM-Ins(1,3,4,5,6)P5; conditions: inhibitor bound at the active site
Experimental: When required, assays were performed in the presence of HDAC inhibitor (20 mM final concentration). Plates were mixed by shaking for 1 s, and measurements taken using a Victor X5 plate reader (Perkin Elmer) at room temperature with an excitation wavelength of 480 nm and an emission wavelength of 535 nm. Experiments were performed in triplicate and data were analysed using GraphPad Prism (version 6.0), Kd values were calculated by nonlinear curve fitting using a one-site binding (hyperbola) model (Y=Bmax*X/(Kd+X).

HDAC1 = target: T3, HDAC1 (UniProt Q13547 1-482); assay: crystal structure; HDAC1:MTA1 (co-expressed and co-purified, 5 mg/ml) co-crystallised with H4K16Hx at a 1:2 molar ratio; sitting drop, 20 °C, 0.1 M HEPES pH 7.5, 2 M ammonium sulfate, 5% PEG400; crystals frozen with 225 mM InsP6; 3.3 Å; conditions: both partners purified
T3 construct: Histone deacetylase 1 (HDAC1), full length, cloned into pcDNA3; Only handled as the co-expressed, co-purified complex with MTA1 162-354; also called histone deacetylase 1; source: HEK293F, co-transfected with the MTA1 construct, purified as the complex (FLAG resin, TEV elution, gel filtration)
T3 sequence (Q13547 whole entry): as the sequence (Q13547 whole entry, one chain of several) above

| HDAC3 activation relative to maximal Ins(1,4,5,6)P4-stimulated activity (HDAC3:SMRT complex) | Kd (HDAC3:SMRT complex) [µM] | Molecule | other results |
| --- | --- | --- | --- |
|  | 41 | O=P(O)(O)O[C@H]1[C@H](OP(=O)(O)O)[C@@H](OP(=O)(O)O)[C@@H](O)[C@@H](O)[C@@H]1OP(=O)(O)O [Ins(3,4,5,6)P4] |  |
| 85% | 45 | O=P(O)(O)OC1C(O)C(O)C(O)C(OP(=O)(O)O)C1OP(=O)(O)O (stereo not drawn) [Ins(4,5,6)P3] |  |

Further lines, the molecule ahead of its results:

| Molecule | HDAC3 activation relative to maximal Ins(1,4,5,6)P4-stimulated activity (HDAC3:SMRT complex) | Kd (HDAC3:SMRT complex) [µM] | other results |
| --- | --- | --- | --- |
| O=P(O)(O)O[C@H]1[C@H](O)[C@H](O)[C@H](OP(=O)(O)O)[C@@H](OP(=O)(O)O)[C@@H]1O [Ins(1,4,6)P3] | completely inert |  |  |
| O=P(O)(O)O[C@H]1[C@H](OP(=O)(O)O)[C@H](O)[C@H](O)[C@@H](O)[C@@H]1OP(=O)(O)O [Ins(1,5,6)P3] | 60% | 29 |  |
| Nc1ncnc2c1ncn2[C@@H]1O[C@H](CO)[C@@H](O[C@H]2O[C@H](CO)[C@@H](OP(=O)(O)O)[C@H](OP(=O)(O)O)[C@H]2O)[C@H]1OP(=O)(O)O [adenophostin A] |  |  | HDAC activity as percentage of maximal Ins(1,4,5,6)P4 activity (HDAC3:SMRT complex): no activity; also recorded: neither activates HDAC3; also recorded: completely inert; IC50 displacement of 2-FAM-Ins(1,3,4,5,6)P5 (HDAC3:SMRT [1]): nor competes for inositol phosphate binding |
| O=P(O)(O)Oc1ccc(OP(=O)(O)O)c(OP(=O)(O)O)c1OP(=O)(O)O [benzene 1,2,3,4-tetrakisphosphate] |  |  | HDAC activity as percentage of maximal Ins(1,4,5,6)P4 activity (HDAC3:SMRT complex): fails to substantially activate the complex |
| H4K16Hx (histone H4 residues 12-18 with hydroxamic acid functionality at K16) (from UniProt P62805 13-19) (peptide) |  |  | inhibition of the deacetylase activity of HDAC1:MTA1 (IC50) (HDAC1:MTA1 complex): 0.336 µM |
| MS-275 |  |  | enhancement of the binding of 2-FAM-Ins(1,3,4,5,6)P5 to the allosteric site by inhibitor (HDAC3:SMRT [2]): threefold enhancement |
| MTA1 residues 162-354 (domain or fragment, UniProt Q13330 162-354, looked up, MTA1, residues 162-354, cloned into pcDNA3 with a FLAG tag and TEV protease cleavage site; The complex was eluted from the FLAG resin with TEV protease; source: HEK293F, co-transfected with HDAC1, purified as the complex (FLAG resin, TEV elution, gel filtration)) ADKGEIRVGNRYQADITDLLKEGEEDGRDQSRLETQVWEAHNPLTDKQIDQFLVVARSVGTFARALDCSSSVRQPSLHMSAAAASRDITLFHAMDTLHKNIYDISKAISALVPQGGPVLCRDEMEEWSASEANLFEEALEKYGKDFTDIQQDFLPWKSLTSIIEYYYMWKTTDRYVQQKRLKAAEAESKLKQV |  |  | binding result (HDAC1): binds |
